Consider twelve compounds from US8906925B2, “Pyrido[4,3-B]indoles containing rigid moieties” (Medivation Technologies, Inc., priority 2008, dated 2014).

Where two headings read alike, the source gives them in different places.

Broadly, the inhibition is the drop in the measured response relative to a control, in per cent.

One test has as its target histamine receptor H1 (Homo sapiens, UniProt P35367). The experiment in a line: Histamine H1 radioligand binding ([3H]Pyrilamine). The conditions noted are these: for inhibition at 1 µM: read-out: Histamine Binding (1 μM) H1, percent inhibition of specific binding, 1 μM. The procedure, abridged:
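Values are percent inhibition of specific [3H]pyrilamine (1.2 nM) binding with compounds at ≤1 μM (1% DMSO vehicle); 180 min incubation at 25 °C, pH 7.4 Tris buffer, on CHO-expressed human H1 receptor; 1 μM pyrilamine defined nonspecific binding, bound ligand counted after filtration.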

Test [1] concerns the target human dopamine D2L receptor (Homo sapiens, UniProt P14416). The experiment in a line: Dopamine D2L radioligand binding ([3H]Spiperone). The conditions noted are these: compound at 1 μM. The text has this:
Non-specific binding was estimated in the presence of […] Haloperidol. Receptor proteins were filtered and washed, the filters were then counted to determine [^3H]Spiperone specifically bound. […] Biochemical assay results are presented as the percent inhibition of specific binding in Table 9.

Test [2] deals with T1, human recombinant serotonin (5-Hydroxytryptamine) 5-HT6 receptor (Homo sapiens, UniProt P50406).
T1 construct: expressed in transfected cells; host or cells: human HeLa cells
The experiment in a line: Serotonin 5-HT6 radioligand binding ([3H]LSD). The conditions noted are these: for inhibition at 1 µM / inhibition at 0.1 µM: read-out: Inhibition of ligand binding, Serotonin 5-HT6 (percent inhibition of specific binding); for inhibition at 0.1 µM: compound at 0.1 μM. The protocol:
Compounds of the invention were incubated with 1.5 nM [3H]Lysergic acid diethylamide (LSD) for 120 min. at 37° C. […] Receptor proteins were filtered and washed, the filters were then counted to determine [3H]LSD specifically bound. Compounds were screened at 1 μM or lower, using 1% DMSO as vehicle. Biochemical assay results are presented as the percent inhibition of specific binding in Table 10.

Test [3] has as its target T2, human recombinant adrenergic α2A receptor (Homo sapiens, UniProt P08913).
T2 construct: expressed in transfected cells; host or cells: insect Sf9 cells
T2 sequence (P08913 1-465): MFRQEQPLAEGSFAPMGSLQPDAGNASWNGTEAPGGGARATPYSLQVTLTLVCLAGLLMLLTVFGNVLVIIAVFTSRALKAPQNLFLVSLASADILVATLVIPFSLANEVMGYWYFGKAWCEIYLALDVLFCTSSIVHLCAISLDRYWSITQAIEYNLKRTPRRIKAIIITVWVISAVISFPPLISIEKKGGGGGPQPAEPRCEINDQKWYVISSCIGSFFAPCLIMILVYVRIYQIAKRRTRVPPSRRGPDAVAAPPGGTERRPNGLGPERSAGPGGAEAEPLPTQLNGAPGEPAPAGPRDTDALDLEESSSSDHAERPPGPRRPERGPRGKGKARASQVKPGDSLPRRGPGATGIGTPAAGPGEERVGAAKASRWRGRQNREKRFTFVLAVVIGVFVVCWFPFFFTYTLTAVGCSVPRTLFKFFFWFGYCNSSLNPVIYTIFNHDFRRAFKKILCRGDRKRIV
The experiment in a line: Adrenergic α2A radioligand binding ([3H]MK-912). The conditions noted are these: compound at 1 μM. The method in brief: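 Sf9-expressed human receptor in 50 mM Tris-HCl pH 7.4, 12.5 mM MgCl2, 2 mM EDTA; compounds at 1 μM or lower (1% DMSO) incubated with 1 nM [3H]MK-912 for 60 min at 25° C. Non-specific binding defined with 10 μM WB-4101; filtered bound radioactivity counted, reported as percent inhibition of specific binding.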

The target of test [4] is T3, human recombinant adrenergic α2B receptor (Homo sapiens, UniProt P18089).
T3 construct: expressed in transfected cells; host or cells: Chinese hamster ovary (CHO-K1) cells
T3 sequence (P18089 1-450): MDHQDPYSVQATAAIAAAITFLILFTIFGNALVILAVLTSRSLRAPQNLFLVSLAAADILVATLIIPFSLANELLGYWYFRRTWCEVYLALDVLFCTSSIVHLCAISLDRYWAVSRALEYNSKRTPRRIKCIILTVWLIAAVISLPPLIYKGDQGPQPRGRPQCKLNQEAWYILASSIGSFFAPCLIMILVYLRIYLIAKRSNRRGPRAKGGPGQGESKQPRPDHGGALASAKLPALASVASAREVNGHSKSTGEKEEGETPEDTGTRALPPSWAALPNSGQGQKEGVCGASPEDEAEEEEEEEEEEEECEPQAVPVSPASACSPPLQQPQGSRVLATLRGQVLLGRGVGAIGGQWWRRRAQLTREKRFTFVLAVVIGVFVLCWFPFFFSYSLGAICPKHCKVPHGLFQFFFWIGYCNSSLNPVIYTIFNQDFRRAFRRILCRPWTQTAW
As to the kind of experiment: Adrenergic α2B radioligand binding ([3H]Rauwolscine). The conditions noted are these: compound at 1 μM. The method in brief:
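Membranes from CHO-K1 cells expressing the receptor were incubated with 2.5 nM [3H]Rauwolscine for 60 min at 25 °C in Tris-HCl buffer pH 7.4 with MgCl2, EDTA and BSA. Non-specific binding was defined with 10 μM prazosin. Compounds were tested at ≤1 μM in 1% DMSO and read out as % inhibition of specific binding after filtration.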

The mark [5] stands for this setting: percent inhibition of specific binding, read-out: Inhibition of ligand binding, Dopamine D2L.
Setting [6] is: percent inhibition of specific binding, read-out: Inhibition of ligand binding, Adrenergic α2A.
[7] abbreviates: percent inhibition of specific binding, read-out: Inhibition of ligand binding, Adrenergic α2B.
[8] abbreviates: percent inhibition of specific binding, 1 µM.
[9] abbreviates: […] [3H]Spiperone, read-out: Inhibition of ligand binding, Dopamine D2L (percent inhibition of specific binding).
The mark [10] stands for this setting: read-out: Inhibition of ligand binding, Adrenergic α2A (percent inhibition of specific binding).
The mark [11] stands for this setting: […] [3H]Rauwolscine, read-out: Inhibition of ligand binding, Adrenergic α2B (percent inhibition of specific binding).

human dopamine D2L receptor, sequence (P14416 whole entry): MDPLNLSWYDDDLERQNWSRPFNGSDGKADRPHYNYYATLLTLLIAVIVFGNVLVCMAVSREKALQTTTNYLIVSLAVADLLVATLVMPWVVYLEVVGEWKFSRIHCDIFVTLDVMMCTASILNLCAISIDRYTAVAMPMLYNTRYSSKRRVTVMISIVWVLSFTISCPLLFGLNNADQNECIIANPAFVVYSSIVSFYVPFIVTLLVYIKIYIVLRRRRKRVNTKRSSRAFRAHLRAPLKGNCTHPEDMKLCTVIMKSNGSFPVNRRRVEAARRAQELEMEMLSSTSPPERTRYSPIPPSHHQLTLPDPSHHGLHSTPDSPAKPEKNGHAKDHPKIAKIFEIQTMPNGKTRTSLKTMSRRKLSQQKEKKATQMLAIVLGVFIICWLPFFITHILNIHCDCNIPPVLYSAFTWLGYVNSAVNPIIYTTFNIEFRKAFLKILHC
T1 sequence (P50406 whole entry): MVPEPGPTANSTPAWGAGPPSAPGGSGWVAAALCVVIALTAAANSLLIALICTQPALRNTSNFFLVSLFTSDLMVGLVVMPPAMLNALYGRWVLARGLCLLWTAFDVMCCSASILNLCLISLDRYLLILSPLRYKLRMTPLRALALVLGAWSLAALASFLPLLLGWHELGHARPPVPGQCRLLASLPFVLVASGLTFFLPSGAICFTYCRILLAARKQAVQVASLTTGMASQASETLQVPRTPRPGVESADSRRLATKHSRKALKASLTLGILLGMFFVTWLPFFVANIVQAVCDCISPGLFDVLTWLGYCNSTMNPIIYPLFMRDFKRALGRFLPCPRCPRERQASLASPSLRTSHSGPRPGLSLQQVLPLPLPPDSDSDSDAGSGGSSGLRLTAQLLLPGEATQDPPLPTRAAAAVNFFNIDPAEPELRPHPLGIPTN
histamine receptor H1, sequence (P35367 whole entry): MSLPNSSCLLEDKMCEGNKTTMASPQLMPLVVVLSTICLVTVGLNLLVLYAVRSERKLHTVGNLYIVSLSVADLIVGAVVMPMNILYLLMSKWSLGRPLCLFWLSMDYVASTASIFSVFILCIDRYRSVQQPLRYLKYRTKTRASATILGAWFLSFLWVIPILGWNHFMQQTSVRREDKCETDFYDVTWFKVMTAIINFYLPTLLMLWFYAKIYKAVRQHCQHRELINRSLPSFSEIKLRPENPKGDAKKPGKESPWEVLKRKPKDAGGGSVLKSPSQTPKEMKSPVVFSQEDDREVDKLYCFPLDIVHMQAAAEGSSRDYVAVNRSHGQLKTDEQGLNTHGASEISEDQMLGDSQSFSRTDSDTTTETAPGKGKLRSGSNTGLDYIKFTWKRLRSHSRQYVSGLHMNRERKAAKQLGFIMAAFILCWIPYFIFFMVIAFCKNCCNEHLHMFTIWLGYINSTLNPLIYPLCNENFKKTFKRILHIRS

For the compound `CN1CCc2c(c3cc(Cl)ccc3n2CC(C)(O)c2cccnc2)C1` (stereo not shown) [Compound 61, 1-(8-chloro-1,2,3,4-tetrahydro-2-methylpyrido[4,3-b]indol-5-yl)-2-(pyridin-3-yl)propan-2-ol], the inhibition at 1 µM was found to be 52% on histamine receptor H1; 19% in test [1] (setting [5]); 65% in test [2] (compound at 1 μM); 76% in test [3] (setting [6]); 107% in test [4] (setting [7]).
In the case of `C/C(=C\n1c2c(c3cc(C)ccc31)CN(C)CC2)c1ccc(Cl)cc1` [Compound 211, (E)-5-(2-(4-chlorophenyl)prop-1-enyl)-2,8-dimethyl-2,3,4,5-tetrahydro-1H-pyrido[4,3-b]indole], the “Histamine Binding (1 μM) H1, percent inhibition of specific binding” value at histamine receptor H1 was 54%. Also, the inhibition at 1 µM on histamine receptor H1 is 53%; in test [1] (setting [5]), 39%; in test [2] (compound at 1 μM), 98%; in test [3] (setting [6]), 97%; in test [4] (setting [7]), 114%. Moreover, the “Inhibition of ligand binding, Dopamine D2L” value (“Inhibition … Dopamine D2L” below) in test [1] (setting [8]) turned out to be 49%. Besides, the inhibition at 0.1 µM in test [2] was found to be 60%.
Take `COc1ccc(C(C)(O)Cn2c3c(c4cc(Cl)ccc42)CN(C)CC3)cc1F` (stereo not shown) [Compound 59, 1-(8-chloro-1,2,3,4-tetrahydro-2-methylpyrido[4,3-b]indol-5-yl)-2-(3-fluoro-4-methoxyphenyl)propan-2-ol]: the inhibition at 1 µM stood at 63% on histamine receptor H1; 17% in test [1] (setting [5]); 54% in test [2] (compound at 1 μM); 83% in test [3] (setting [6]); 95% in test [4] (setting [7]).
With `COC(=O)c1ccc2c(c1)c1c(n2C#Cc2ccc(F)cc2)CCN(C)C1` [Compound No. 479, methyl 5-((4-fluorophenyl)ethynyl)-2-methyl-2,3,4,5-tetrahydro-1H-pyrido[4,3-b]indole-8-carboxylate], the inhibition at 1 µM came out at 11% on histamine receptor H1; 72% in test [1] (setting [9]); 91% in test [2] (compound at 1 μM); 83% in test [3] (setting [10]); 37% in test [4] (setting [11]).
Consider `COc1ccc(/C(C)=C/n2c3c(c4cc(Cl)ccc42)CN(C)CC3)cc1` [Compound 92, (E)-8-chloro-2,3,4,5-tetrahydro-5-(2-(4-methoxyphenyl)prop-1-enyl)-2-methyl-1H-pyrido[4,3-b]indole], for which the inhibition at 1 µM stood at 44% at histamine receptor H1; 83% in test [1] (setting [5]); 97% in test [2] (compound at 1 μM); 89% in test [3] (setting [6]); 103% in test [4] (setting [7]). For the same compound, in test [1] (setting [8]), the “Inhibition … Dopamine D2L” value worked out at 97%.
As to `CN1CCc2c(c3cc(Cl)ccc3n2C/C(=C\CCO)c2ccc(F)cc2)C1` [Compound No. 348, (Z)-5-(8-chloro-2-methyl-3,4-dihydro-1H-pyrido[4,3-b]indol-5(2H)-yl)-4-(4-fluorophenyl)pent-3-en-1-ol], on histamine receptor H1, the “Histamine Binding (1 μM) H1, percent inhibition of specific binding” value was determined as 38%. Besides, the inhibition at 1 µM on histamine receptor H1 came out at 32%; in test [1] (setting [5]) it was 18%; in test [2] (compound at 1 μM), 94%; in test [3] (setting [6]), 92%; in test [4] (setting [7]) it was 105%. In test [1] (setting [8]), the “Inhibition … Dopamine D2L” value is on record as 29%. Further, the “Inhibition of ligand binding, Serotonin 5-HT6 (percent inhibition of specific binding)” value in test [2] (compound at 1 μM, 1 µM) was 98%.
For the compound `COc1ccc(/C(C)=C/n2c3c(c4cc(Cl)ccc42)CN(C)CC3)cc1F` [Compound 93, (E)-8-chloro-5-(2-(3-fluoro-4-methoxyphenyl)prop-1-enyl)-2,3,4,5-tetrahydro-2-methyl-1H-pyrido[4,3-b]indole], the inhibition at 1 µM on histamine receptor H1 came out at 39%; in test [1] (setting [5]), 85%; in test [2] (compound at 1 μM), 93%; in test [3] (setting [6]), 94%; in test [4] (setting [7]) it was 108%. Further, the “Inhibition … Dopamine D2L” value in test [1] (setting [8]) came to 97%.
Turning to `Cc1ccc2c(c1)c1c(n2C#Cc2ccc(Cl)cc2)CCN(C)C1` [Compound No. 481, 5-((4-chlorophenyl)ethynyl)-2,8-dimethyl-2,3,4,5-tetrahydro-1H-pyrido[4,3-b]indole], the inhibition at 1 µM at histamine receptor H1 was found to be 12%; in test [1] (setting [9]), 24%; in test [2] (compound at 1 μM), 87%; in test [3] (setting [10]), 99%; in test [4] (setting [11]) it was 98%.
As to `CCCC/C(=C\n1c2c(c3cc(Cl)ccc31)CN(C)CC2)c1ccc(F)cc1` [Compound 208, (E)-8-chloro-5-(2-(4-fluorophenyl)hex-1-enyl)-2-methyl-2,3,4,5-tetrahydro-1H-pyrido[4,3-b]indole], the inhibition at 1 µM was 64% at histamine receptor H1; 78% in test [1] (setting [5]); 103% in test [2] (compound at 1 μM); 99% in test [3] (setting [6]); 103% in test [4] (setting [7]).
In the case of `CN1CCc2c(c3cc(Cl)ccc3n2/C=C(/c2ccc(F)cc2)C2CC2)C1` [Compound 110, (E)-8-chloro-5-(2-cyclopropyl-2-(4-fluorophenyl)vinyl)-2,3,4,5-tetrahydro-2-methyl-1H-pyrido[4,3-b]indole], at histamine receptor H1, the “Histamine Binding (1 μM) H1, percent inhibition of specific binding” value is on record as 83%. The inhibition at 1 µM was determined as 77% on histamine receptor H1; 96% in test [1] (setting [5]); 104% in test [2] (compound at 1 μM); 99% in test [3] (setting [6]); 92% in test [4] (setting [7]). The “Inhibition … Dopamine D2L” value in test [1] (setting [8]) amounted to 98%. The inhibition at 0.1 µM in test [2] is 102%.
For the compound `COc1ccc(C(C)(O)Cn2c3c(c4cc(C)ccc42)CN(C)CC3)cc1` (stereo not shown) [Compound 174, 1-(2,8-dimethyl-3,4-dihydro-1H-pyrido[4,3-b]indol-5(2H)-yl)-2-(4-methoxyphenyl)propan-2-ol], the inhibition at 1 µM at histamine receptor H1 stood at 34%; in test [1] (setting [5]), 34%; in test [2] (compound at 1 μM), 82%; in test [3] (setting [6]) it was 93%; in test [4] (setting [7]), 88%. In addition, the “Inhibition … Dopamine D2L” value in test [1] (percent inhibition of specific binding) was 34/34%. Further, in test [2], the inhibition at 0.1 µM was found to be 40%.
With `Cc1ccc2c(c1)c1c(n2CC(O)c2ccc(F)cc2)CCN(C)C1` (stereo not shown) [Compound 172, 2-(2,8-dimethyl-3,4-dihydro-1H-pyrido[4,3-b]indol-5(2H)-yl)-1-(4-fluorophenyl)ethanol], the inhibition at 1 µM on histamine receptor H1 came out at 95%; in test [1] (setting [5]), 36%; in test [2] (compound at 1 μM), 93%; in test [3] (setting [6]) it was 98%; in test [4] (setting [7]) it was 104%.
